Columns and labels:
5-HT2CR = biological target: T1, 5-HT2CR (Homo sapiens, UniProt P28335); test: Radioligand binding assay, CHO-K1 cells overexpressing human receptor (Eurofins Panlabs); settings: read-out: inhibition constant (Ki), 5-HT2CR
T1 construct: 355200 (GTPγS); host or cells: CHO-K1
Procedure: (§1) The binding profile of AM1476 was evaluated for binding to human 5‐HT2AR, 5‐HT2BR, and 5‐HT2CR in radioligand binding assays using Chinese hamster ovary (CHO‐K1) cells overexpressing human receptors (in vitro assays 271650, 271700, and 271800; Eurofins Panlabs Discovery). AM1476 was evaluated at 0.1, 1, 10, 100, 1,000, and 10,000 nM (5‐HT2BR) or at 1, 10, 100, 1,000, and 10,000 nM (5‐HT2AR and 5‐HT2CR). Human 5‐HT2AR and 5‐HT2BR functionality was measured with homogeneous time‐resolved fluorescence quantification of IP1 accumulation in CHO‐K1 cells (in vitro assays 355250 and 355260). Compounds creating a ≥50% inhibition of 5‐HT (5 nM) induced fluorescence response specified receptor antagonist activity. 5‐HT2CR functionality was assessed with [35S] GTPγS for quantification of bound GTPγS. Compounds creating a ≥50% inhibition of 5‐HT (100 nM) induced [35S] GTPγS binding response specified receptor antagonist activity (in vitro assay 355200). AM1476 was evaluated at 0.1, 0.3, 1, 3, 10, 30, and 300 nM (5‐HT2BR) or 1, 10, 100, 1,000, and 10,000 nM (5‐HT2AR and 5‐HT2CR). A nonlinear least squares regression analysis was used to determine half‐maximal inhibitory concentration (IC50) values. Mouse 5‐HT2BR functionality was measured in a calcium influx assay (Charles River) in CHO‐KI cells expressing the mouse 5‐HT2BR using a calcium sensitive dye and a fluorescence imaging plate reader (FLIPRTETRA) instrument. AM1476 was evaluated at 0.3, 1, 3, 10, 30, 100, 300, and 1,000 nM.

human 5-HT2AR = biological target: T2, human 5-HT2AR (Homo sapiens, UniProt P28223); test: as above; settings: read-out: inhibition constant (Ki), 5-HT2AR
T2 construct: 355250 (IP1); host or cells: CHO-K1
T2 sequence (P28223 whole entry): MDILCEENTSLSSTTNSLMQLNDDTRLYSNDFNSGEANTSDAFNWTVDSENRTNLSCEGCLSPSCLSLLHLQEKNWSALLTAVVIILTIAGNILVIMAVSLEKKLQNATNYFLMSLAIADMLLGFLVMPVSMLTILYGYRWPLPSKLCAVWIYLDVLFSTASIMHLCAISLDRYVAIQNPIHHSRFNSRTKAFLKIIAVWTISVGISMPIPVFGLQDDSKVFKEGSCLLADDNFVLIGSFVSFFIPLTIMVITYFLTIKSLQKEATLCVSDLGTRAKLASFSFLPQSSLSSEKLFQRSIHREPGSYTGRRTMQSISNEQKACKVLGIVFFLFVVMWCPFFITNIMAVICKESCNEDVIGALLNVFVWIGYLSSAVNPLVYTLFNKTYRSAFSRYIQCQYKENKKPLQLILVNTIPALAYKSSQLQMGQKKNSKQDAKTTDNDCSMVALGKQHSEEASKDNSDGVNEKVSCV
Procedure: as §1

human 5-HT2BR = biological target: T3, human 5-HT2BR (Homo sapiens, UniProt P41595); test: as above; settings: read-out: inhibition constant (Ki), human 5-HT2BR
T3 construct: 355260 (IP1); host or cells: CHO-K1
T3 sequence (P41595 whole entry): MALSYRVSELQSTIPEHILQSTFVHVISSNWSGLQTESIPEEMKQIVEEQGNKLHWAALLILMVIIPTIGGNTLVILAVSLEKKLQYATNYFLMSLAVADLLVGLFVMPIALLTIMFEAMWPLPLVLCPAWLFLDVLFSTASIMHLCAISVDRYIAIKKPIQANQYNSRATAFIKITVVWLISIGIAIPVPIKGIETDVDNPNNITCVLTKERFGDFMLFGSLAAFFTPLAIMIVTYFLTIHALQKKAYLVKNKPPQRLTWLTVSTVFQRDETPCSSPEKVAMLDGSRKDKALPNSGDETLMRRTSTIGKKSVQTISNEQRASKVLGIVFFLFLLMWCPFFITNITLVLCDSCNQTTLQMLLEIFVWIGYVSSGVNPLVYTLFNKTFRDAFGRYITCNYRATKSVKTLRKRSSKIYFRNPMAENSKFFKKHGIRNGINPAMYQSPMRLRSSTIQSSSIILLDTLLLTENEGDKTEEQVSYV
Procedure: as §1

[1] = cGvHD mice, 28 days repeated oral once daily administration
Procedure: After repeated oral administration for 28 days, whole blood was collected from each treatment group 15 minutes, 30 minutes, and 1, 2, 4, 6, 8, and 24 hours after a final morning dose (two animals were used for each time point), and plasma was separated from blood within 30 minutes.

[2] = tested on: cGvHD-induced skin fibrosis; test: Sclerodermatous cGvHD mouse model (B10.D2 to BALB/c), skin fibrosis incl. RNASeq and immunofluorescence of skin; format: in vivo
Procedure: AM1476 was dissolved in sterile distilled water for the ex vivo and in vivo experiments. A concentration of 30 μM was applied for the ex vivo experiment. For the in vivo experiments, 1, 3, or 10 mg/kg was administered orally once or twice daily.
The B10.D2→BALB/c (H‐2d) minor histocompatibility antigen–mismatched model was performed as described.[9], [10] Briefly, female BALB/c (H‐2d) mice were purchased from Janvier. Male B10.D2 (H‐2d) mice were initially purchased from Jackson Laboratory. All mice were maintained in specific pathogen‐free conditions with sterile pellet food and water and a normal day–night cycle. For isolation of unfractionated bone marrow cells, tibial and femoral bones were prepared under sterile conditions. Phosphate buffered saline (PBS) was used to flush bone marrow cells from bone marrow cavities. Subsequently, bone marrow cells were filtered through 70‐μm nylon meshes (BD Biosciences), followed by erythrocyte hemolysis. The remaining bone marrow cells were kept on ice until transplantation. Transplantation of bone marrow cells and splenocytes was performed as follows: Recipient mice (BALB/c [H‐2d]) eight weeks of age received total body irradiation with 750 cGy. Six hours after irradiation, all BALB/c (H‐2d) recipients received bone marrow from either BALB/c (H‐2d) in a syngeneic transplantation manner or B10.D2 (H‐2d) in an allogeneic transplantation manner. For transplantation, 5 × 10[6] splenocytes and 2 × 10[6] bone marrow cells from donor mice were resuspended in 0.2 mL of PBS and injected via tail veins.[9], [10] To reflect the clinical situation with treatment initiation upon clinical signs of chronic graft‐versus‐host disease (cGvHD), treatment was started 21 days after bone marrow transplantation (BMT) and thus after the first clinically detectable manifestations of cGvHD in allogeneically transplanted mice. The outcome of treatment was analyzed seven weeks after transplantation. Eight mice per group were analyzed.
Mice were monitored clinically on a daily basis for behavior, activity, texture of the fur, weight, and consistency of the stool.[13] After the mice were killed, a gross macroscopic evaluation of the lungs and the skin was performed.
Recipient mice were clinically monitored on a daily basis from the day of transplantation to the indicated days after transplantation to determine the incidence and severity of cutaneous cGvHD as well as mobility, diarrhea, and weight loss.[10], [14] The following scoring system for cutaneous cGvHD was used: healthy appearance = 0; skin lesions with alopecia <1 cm[2] in area = 1; skin lesions with alopecia 1 to 2 cm[2] in area = 2; and skin lesions with alopecia >2 cm[2] in area = 3.
Skin samples were fixed in 4% formalin for six hours and embedded in paraffin. Five‐micrometer sections were cut and stained with hematoxylin and eosin (H&E). The dermal thickness was quantified on H&E‐stained sections using images captured with a light microscope (Nikon eclipse 80i) at 100‐fold magnification by manually measuring the distance between the epidermal‐dermal junction and the dermal‐subcutaneous fat junction at four sites per mouse.[15], [16] For lung samples, the whole left lung was fixed in 4% formalin for six hours and embedded in paraffin. Five‐micrometer sections were cut and stained with trichrome and sirius red. Histologic readouts were evaluation of the fibrotic area as the percentage of the total lung area in sirius red–stained sections (two sections per mouse) and quantification of pulmonary changes using the Ashcroft score (four sections per mouse).[17], [18]
The amount of collagen protein in skin and lung samples was determined by hydroxyproline assay.[19], [20] After digestion in 6 M HCl for three hours at 120°C, the pH of the samples was adjusted to a pH range of 6–7 with 6 M NaOH. Afterward, 0.06 M chloramine T was added to each sample and incubated for 20 minutes at room temperature.

[3] = biological target: T4, Serotonin (5-Hydroxytryptamine) 5-HT5A (hu) (Homo sapiens, UniProt P47898); test: Receptor binding, Eurofins Panlabs 272100
T4 construct: Eurofins Panlabs 272100
T4 sequence (P47898 whole entry): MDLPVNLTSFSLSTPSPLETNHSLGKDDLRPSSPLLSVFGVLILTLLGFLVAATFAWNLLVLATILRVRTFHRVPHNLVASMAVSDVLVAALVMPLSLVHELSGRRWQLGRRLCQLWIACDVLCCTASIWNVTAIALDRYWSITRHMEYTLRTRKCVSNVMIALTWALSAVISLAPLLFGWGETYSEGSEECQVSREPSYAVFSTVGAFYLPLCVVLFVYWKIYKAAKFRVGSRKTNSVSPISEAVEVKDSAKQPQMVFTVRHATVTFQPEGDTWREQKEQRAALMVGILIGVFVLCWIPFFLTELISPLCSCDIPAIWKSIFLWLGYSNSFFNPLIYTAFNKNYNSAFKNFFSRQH
Description: Effects were considered significant if AM1476's mean value was three or more SDs above the vehicle control mean in the agonist assay or three or more SDs below the positive control agonist (5‐nM α‐methylserotonin) mean in the antagonist assay. AM1476 was screened for selectivity against approximately 200 targets using a Eurofins Panlabs Spectrum screen panel including enzymatic and receptor binding assays.

[4] = treatment from day 21 after BMT, vs vehicle-treated mice seven weeks after BMT

T1 sequence (P28335 33-458): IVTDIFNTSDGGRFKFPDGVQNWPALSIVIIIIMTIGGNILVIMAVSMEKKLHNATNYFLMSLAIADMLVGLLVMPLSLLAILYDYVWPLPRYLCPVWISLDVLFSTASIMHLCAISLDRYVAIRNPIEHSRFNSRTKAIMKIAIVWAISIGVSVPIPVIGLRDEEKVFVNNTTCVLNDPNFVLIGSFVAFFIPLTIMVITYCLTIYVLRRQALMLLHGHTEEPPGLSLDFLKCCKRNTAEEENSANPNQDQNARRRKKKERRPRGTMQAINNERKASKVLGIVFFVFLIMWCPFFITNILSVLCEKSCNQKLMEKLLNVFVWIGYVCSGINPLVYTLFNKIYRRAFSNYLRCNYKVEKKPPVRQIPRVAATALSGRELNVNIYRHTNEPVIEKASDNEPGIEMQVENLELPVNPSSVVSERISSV

SMILES: C[C@@H]1CN(C(=N)N)N=C1c1ccc(F)cc1O [AM1476]
- Ki (5-HT2CR): 0.06 µM
- Ki (human 5-HT2AR): 0.8 µM
- Ki (human 5-HT2BR): 0.006 µM
- level of systemic exposure (free plasma concentration) vs IC50 of mouse 5-HT2BR antagonistic activity [1]: exceeded the IC50
- antifibrotic effects, comparison of doses ([2]; 10 mg/kg bid and 10 mg/kg qd (comparable to each other) vs 1 mg/kg bid): more pronounced than with 1 mg/kg bid
- hydroxyproline content, skin, vs mice killed after three weeks ([2]; 10 mg/kg qd): significant reduction
- number of CD45+ leukocytes in skin ([2]; all doses): none of the concentrations of AM1476 reduced
- myofibroblast counts vs mice killed three weeks after BMT ([2]; all three doses): significantly lower
- tolerability (clinical examination, gross necropsy, histology) ([2]; all three doses (1 mg/kg bid, 10 mg/kg qd, 10 mg/kg bid), oral): well tolerated without obvious signs of toxicity
- AAM (alternatively activated M2 macrophage) counts in the skin ([2]; all three doses, statistically significant for 10 mg/kg qd and 10 mg/kg bid): reduction of AAM accumulation
- accumulation of hydroxyproline, skin [2, 4]: reduced
- dermal thickening [2, 4]: reduced
- myofibroblast differentiation, skin [2, 4]: reduced
- % Inhibition at 1 µM, 5-HT5A (hu) ([3]; 1 µM (value in brackets)): 10%
- % Inhibition at 10 µM, 5-HT5A (hu) ([3]; 10 µM): 70%
